Results from patent US8980846B2, “Composition containing styraxlignolide A or the aglycone thereof as an active ingredient for preventing or treating asthma” (Korea Research Institute of Bioscience and Biotechnology, priority 2010, dated 2015).

Legend:
Assay type in all cases: in vivo, Balb/c female mice
IL-17 = IL-17 in bronchoalveolar lavage fluid; conditions: asthma-induced mice, homoegonol study
Protocol: (§1) To prepare bronchial asthma-induced experimental animals, six-week-old Balb/c female mice of mean weight about 20 g were used. After one week of adaptation, individuals which had no observed abnormality on a basic physical examination were targeted. 200 μL of phosphate buffered saline (PBS)(pH 7.4) in which 2 mg of aluminum hydroxide (A8222, Sigma, St. Louis, Mo.) and 20 μg of ovalbumin (A5503, Sigma, St. Louis, Mo.) were suspended was injected into the peritoneal cavity at two-week intervals to result in sensitization. On days 28 to 30 after the first intraperitoneal administration of ovalbumin, inhalation challenge was performed for 30 min with 1% ovalbumin using an ultrasonic atomizer. 24 hours after the last antigen administration, airway hyperresponsiveness was measured. After 24 hours, a lethal dose of pentobarbital (Entobar®, Hanlim Pharm Co., Ltd.) was administered, body weight measurement and bronchotomy were performed, and bronchoalveolar lavage was performed with a total 1.2 mL of physiological saline, and then, samples were collected. […] Eight white mice were used for each group. Experimental groups for homoegonol were a group (hE7.5) in which animals were orally administered with 7.5 mg/kg homoegonol 1 hour prior to ovalbumin inhalation, a group (hE15) in which animals were orally administered with 15 mg/kg homoegonol 1 hour prior to ovalbumin inhalation, and a group (hE30) in which animals were orally administered with 30 mg/kg homoegonol 1 hour prior to ovalbumin inhalation, and five white mice were used for each group.
(§2) To examine the effect of homoegonol on airway remodeling, generation of TGF-β1 and IL-17 in bronchoalveolar lavage fluid was measured.

[1] = Body weight in asthma-induced mice; conditions: homoegonol study
Protocol: as §1
(§3) To determine an effect of styraxlignolide A on reduction in body weight in asthma-induced mice, body weight of each mouse prepared in Example 2 was measured. For statistical analyses for all measurements, means and standard errors (mean±S.E.) according to a number of variables were calculated, and comparison between each group was analyzed by performing a Mann-whitney U test using SPSS 10.0. Statically significance was accepted at p<0.05.
as §3, with “homoegonol” for “styraxlignolide A”

[2] = tested on: airway hyperresponsiveness; assay: Airway hyperresponsiveness, Penh by one chamber plethysmography after methacholine inhalation; conditions: asthma-induced mice, homoegonol study
Protocol: as §1, with “Experimental groups for homoegonol were a group (hE7.5) in which animals were orally administered with 7.5 mg/kg homoegonol 1 hour prior to ovalbumin inhalation, a group (hE15) in which animals were orally administered with 15 mg/kg homoegonol 1 hour prior to ovalbumin inhalation, and a group (hE30) in which animals were orally administered with 30 mg/kg homoegonol 1 hour prior to ovalbumin inhalation, and five white mice were used for each group.” left out
The effect of styraxlignolide A on airway hyperresponsiveness caused by asthma occurrence was examined by measuring airway resistance with one chamber plethysmography (All medicus, Seoul, Republic of Korea) and degree of airway resistance was assessed by measuring Penh (enhanced pause) values. The baseline value was measured under a normal respiratory condition, and then, PBS was inhaled using an ultrasonic atomizer for 3 min, and Penh values were measured over 3 min. […] Louis, Mo.) which is used in general methods for diagnosis of bronchial asthma were inhaled and Penh values were measured. Penh value is shown in the following Equation 1, and the resulting Penh value was expressed as a percent increase in Penh after inhalation of each concentration of methacholine. The baseline Penh (saline challenge) was expressed as 100%.
Te: expiratory time (sec), the time from inspiration to the next inspiration
RT: relaxation time, the elapsed time between the beginning of the expiration and the moment when the remaining 30% of the tidal volume has been reached during expiration
PEF: Peak expiration flow
PIF: Peak inspiration flow
To examine the effect of homoegonol on airway hyperresponsiveness caused by asthma occurrence, Penh value was measured according to the method in <Experimental Example 2>.

[3] = tested on: inflammatory cells in bronchoalveolar lavage fluid; assay: Inflammatory cell counts in bronchoalveolar lavage fluid (Diff-Quick staining); conditions: asthma-induced mice, homoegonol study, bronchoalveolar lavage fluid
Protocol: as §1
Bronchoalveolar lavage fluid was collected from individuals of each experimental group in <Example 2> and right after the collection, fluid was stained with trypan blue. The number of total cells except dead cells was calculated using a hemocytometer. Then, Diff-Quick staining (Sysmex, Swizerland) was performed after smear preparation with Cytospin II, and eosinophils and other inflammatory cells were differentially counted.
To examine the effect of homoegonol on asthma, variation in the numbers of asthma-related inflammatory cells was measured according to the method in <Experimental Example 3>.

TGF-β1 = TGF-β1 in bronchoalveolar lavage fluid; conditions: asthma-induced mice, homoegonol study
Protocol: as §1, §2

goblet cells = assay: Ratio of goblet cells to bronchial epithelial cells (PAS staining); conditions: asthma-induced mice, homoegonol study
Protocol: as §1
Lungs removed from each individual were subjected to conventional formalin fixation and paraffin embedding, and permanent section slides of 4 μm thickness were prepared, and periodic acid Schiff (PAS) staining was performed to determine goblet cells. Proliferation of goblet cells was assessed by measuring the ratio of goblet cells to bronchial epithelial cells.
In accordance with the method in <Experimental Example 7-2>, the ratio of goblet cells which were determined by periodic acid-Schiff staining to bronchial epithelial cells were measured to assess proliferation of goblet cells.

SMILES: COc1ccc(-c2cc3cc(CCCO)cc(OC)c3o2)cc1OC [homoegonol]
- IL-17 concentrations in bronchoalveolar lavage fluid (IL-17; 7.5 mg/kg PO): 70.3409 ± 14.2912 pg/mL
- IL-17 concentrations in bronchoalveolar lavage fluid (IL-17; 15 mg/kg PO): 43.5682 ± 2.9102 pg/mL
- IL-17 concentrations in bronchoalveolar lavage fluid (IL-17; 30 mg/kg PO): 27.3863 ± 5.7881 pg/mL
- body weight ([1]; 7.5 mg/kg PO 1 hour prior to ovalbumin inhalation): 22.10 ± 0.13 g
- body weight ([1]; 15 mg/kg PO 1 hour prior to ovalbumin inhalation): 21.23 ± 0.43 g
- body weight ([1]; 30 mg/kg PO 1 hour prior to ovalbumin inhalation): 21.98 ± 0.47 g
- Penh values ([2]; 7.5 mg/kg PO, methacholine 0 mg/ml): 0.6003 ± 0.0500
- Penh values ([2]; 7.5 mg/kg PO, methacholine 12.5 mg/ml): 1.1399 ± 0.1279
- Penh values ([2]; 7.5 mg/kg PO, methacholine 25 mg/ml): 1.4067 ± 0.1279
- Penh values ([2]; 7.5 mg/kg PO, methacholine 50 mg/ml): 1.4317 ± 0.2094
- Penh values ([2]; 15 mg/kg PO, methacholine 0 mg/ml): 0.4538 ± 0.0376
- Penh values ([2]; 15 mg/kg PO, methacholine 12.5 mg/ml): 0.7989 ± 0.0736
- Penh values ([2]; 15 mg/kg PO, methacholine 25 mg/ml): 1.0243 ± 0.1881
- Penh values ([2]; 15 mg/kg PO, methacholine 50 mg/ml): 1.0918 ± 0.1914
- Penh values ([2]; 30 mg/kg PO, methacholine 0 mg/ml): 0.4736 ± 0.0420
- Penh values ([2]; 30 mg/kg PO, methacholine 12.5 mg/ml): 0.6516 ± 0.0914
- Penh values ([2]; 30 mg/kg PO, methacholine 25 mg/ml): 0.9515 ± 0.1268
- Penh values ([2]; 30 mg/kg PO, methacholine 50 mg/ml): 1.0576 ± 0.1582
- Number of cells, Other inflammatory cells ([3]; 7.5 mg/kg PO): 33.40 ± 2.3467 ×10^3 cells/mouse
- Number of cells, Eosinophils ([3]; 7.5 mg/kg PO, 7.5 mg/kg): 12.80±2.50 ×10^3 cells/mouse
- Number of cells, Total inflammatory cells ([3]; 7.5 mg/kg PO, 7.5 mg/kg): 42.80±7.2060 ×10^3 cells/mouse
- Number of cells, Other inflammatory cells ([3]; 15 mg/kg PO): 30.00 ± 2.8267 ×10^3 cells/mouse
- Number of cells, Eosinophils ([3]; 15 mg/kg PO, 15 mg/kg): 6.32±0.86 ×10^3 cells/mouse
- Number of cells, Total inflammatory cells ([3]; 15 mg/kg PO, 15 mg/kg): 39.72±4.4400 ×10^3 cells/mouse
- Number of cells, Other inflammatory cells ([3]; 30 mg/kg PO): 28.4 ± 3.1739 ×10^3 cells/mouse
- Number of cells, Eosinophils ([3]; 30 mg/kg PO, 30 mg/kg): 5.48±2.02 ×10^3 cells/mouse
- Number of cells, Total inflammatory cells ([3]; 30 mg/kg PO, 30 mg/kg): 33.88±8.1589 ×10^3 cells/mouse
- TGF-β1 concentrations in bronchoalveolar lavage fluid (TGF-β1; 7.5 mg/kg PO): 216.1875 ± 13.5904 pg/mL
- TGF-β1 concentrations in bronchoalveolar lavage fluid (TGF-β1; 15 mg/kg PO): 190.4375 ± 13.0702 pg/mL
- TGF-β1 concentrations in bronchoalveolar lavage fluid (TGF-β1; 30 mg/kg PO): 186.8125 ± 6.4551 pg/mL
- Goblet cells %/bronchial epithelial cell unit (goblet cells; 7.5 mg/kg PO, 7.5 mg/kg): 36.5600±11.5613%
- Goblet cells %/bronchial epithelial cell unit (goblet cells; 15 mg/kg PO, 15 mg/kg): 32.4109±10.8037%
- Goblet cells %/bronchial epithelial cell unit (goblet cells; 30 mg/kg PO, 30 mg/kg): 25.0956±3.4033%
